Values belong to the compound of their own block, whether it stands above or below them.
Tested on: heme oxygenase-1 (HO-1)
Test: High throughput screen: HO-1 promoter/enhancer luciferase reporter (pHOGL3/4.5+220) in stable HEK293 cells
Type: cell-based
Conditions: Homo sapiens; for EC50: Table 1, evaluation of biaryl aminomaleimides, HO-1 induction; for Emax: Table 1, unit inferred, Emax as % of 5 μM hemin
Experimental: The generation of the pHOGL3/4.5+220 construct is described in Deshane, et al. (2010) “SpI regulates chromatin looping between an intronic enhancer and distal promoter of the human heme oxygenase-1 gene in renal cells” J Biol Chem 285(22): 16476-86. See also FIG. 1.
Briefly, BamHI sites were added to the 4.5-kb PCR product generated by long-range PCR from a bacterial artificial chromosome clone containing portions of chromosome 22 (accession no. Z82244), including the HO-1 gene. This fragment was cloned into the BglII restriction site of the multiple cloning region to make the parental clone (pHOGL3/4.5). The 220-bp intronic enhancer was amplified with SalI sites on either end and cloned into the SalI site of the vector to generate pHOGL3/4.5+220.
In order to generate cells that stably express luciferase expression vectors that lack a mammalian antibiotic selection cassette, HEK293 cells were co-transfected with either pHOGL3/4.5+220 (Deshane et al, 2010) or the Triple Mutant construct (Liby, Hock et al, 2005; Hock et al, 2007) and pcDNA3.1 Zeocin using Lipofectamine 2000. Cells were cultured in Zeocin (400 ug/ml; Invitrogen) for selection. Individual clones were sorted by flow cytometry and plated into a 96-well plate at a density of one cell per well. Clones were maintained and expanded in complete media (DMEM/10% FBS/1× antibiotic-antimycotic) supplemented with 100 ug/ml Zeocin, and incubated at 37° C. in 5% carbon dioxide. Incorporation of the Luciferase expression vectors was validated by assaying for luciferase.
A library of over 150,000 compounds, as well as a library of over 4,000 FDA approved compounds, were used in the HTS assay. […] This led to the identification of approximately 800 compounds that induce HO-1 and have desirable chemical structures. […] The In-Cell Western assay was optimized to screen for endogenous HO-1 in a high throughput platform, and results were validated by Western blot, real-time PCR, and enzyme activity assays. Additional RNA sequencing studies highlighted a role for the transcription factor Nrf2 and other targets in HO-1 induction by several small molecules.

Compound: O=C1C=C(Nc2c(F)cc(O)cc2F)C(=O)N1c1ccccc1 [Compound 10]
EC50: > 50 µM

Compound: O=C1C=C(Nc2ccc(O)c(C(F)(F)F)c2)C(=O)N1c1ccccc1 [Compound 11]
EC50: > 50 µM

Compound: O=C1C=C(Nc2ccc(O)c3ncccc23)C(=O)N1c1ccccc1 [Compound 13]
EC50: > 50 µM

Compound: O=C1C=C(Nc2cc(F)cc(F)c2O)C(=O)N1c1ccccc1 [Compound 15]
EC50: > 50 µM

Compound: O=C1C=C(Nc2cc(Cl)c(Cl)cc2O)C(=O)N1c1ccccc1 [Compound 16]
EC50: > 50 µM

Compound: O=C1C=C(Nc2cc(O)c(F)cc2F)C(=O)N1c1ccccc1 [Compound 18]
EC50: > 50 µM

Compound: O=C1C=C(Nc2cc(O)c(Cl)cc2F)C(=O)N1c1ccccc1 [Compound 19]
EC50: > 50 µM

Compound: O=C1C=C(Nc2cc(O)c(Cl)cc2Cl)C(=O)N1c1ccccc1 [Compound 20]
EC50: > 50 µM

Compound: O=C1C=C(Nc2cc(F)c(F)c(F)c2)C(=O)N1c1ccccc1 [Compound 21]
EC50: > 50 µM

Compound: O=C1C=C(N2CCN(c3ccc(O)cc3)CC2)C(=O)N1c1ccccc1 [Compound 22]
EC50: > 50 µM

Compound: COc1c(F)cc(NC2=CC(=O)N(c3ccccc3)C2=O)cc1F [Compound 23]
EC50: > 50 µM

Compound: O=C(O)c1ccc(NC2=CC(=O)N(c3ccccc3)C2=O)cc1 [Compound 24]
EC50: > 50 µM

Compound: Nc1ccc(NC2=CC(=O)N(c3ccccc3)C2=O)cc1 [Compound 25]
EC50: > 50 µM

Compound: O=C1C=C(Nc2cc(F)c(O)c(F)c2)C(=O)N1c1cc(F)cc(F)c1 [Compound 27]
EC50: > 50 µM | Emax: 72.6%

The next lines start with results.

EC50: 3.08 µM
Compound: O=C1C=C(Nc2cc(F)c(O)c(F)c2)C(=O)N1c1ccccc1 [Compound 1, 3-(3,5-difluoro-4-hydroxy-anilino)-1-phenyl-pyrrole-2,5-dione]
Emax: 90.6%

EC50: 1.81 µM
Compound: O=C1C=C(Nc2ccc(O)cc2)C(=O)N1c1ccccc1 [Compound 2]
Emax: 38.1%

EC50: 1.86 µM
Compound: O=C1C=C(Nc2ccc(O)c(F)c2)C(=O)N1c1ccccc1 [Compound 3]
Emax: 56.4%

EC50: 1.78 µM
Compound: O=C1C=C(Nc2ccc(O)cc2F)C(=O)N1c1ccccc1 [Compound 4]
Emax: 38.9%

EC50: 31.3 µM
Compound: O=C1C=C(Nc2cc(Cl)c(O)c(Cl)c2)C(=O)N1c1ccccc1 [Compound 5]
Emax: 72.8%

EC50: 1.74 µM
Compound: O=C1C=C(Nc2ccc(O)cc2Cl)C(=O)N1c1ccccc1 [Compound 6]
Emax: 20.4%

EC50: > 50 µM
Compound: O=C1C=C(Nc2ccc(O)c(Cl)c2)C(=O)N1c1ccccc1 [Compound 7]

EC50: 5.49 µM
Compound: O=C1C=C(Nc2ccc(O)c(F)c2F)C(=O)N1c1ccccc1 [Compound 8]
Emax: 41.7%

EC50: 1.69 µM
Compound: O=C1C=C(Nc2ccc(O)c(Cl)c2F)C(=O)N1c1ccccc1 [Compound 9]
Emax: 33.7%

EC50: 7.55 µM
Compound: Cc1cc(NC2=CC(=O)N(c3ccccc3)C2=O)cc(C)c1O [Compound 12]
Emax: 39.3%

EC50: 2.97 µM
Compound: O=C1C=C(Nc2cc(F)c(O)cc2F)C(=O)N1c1ccccc1 [Compound 14]
Emax: 49.1%

EC50: 12 µM
Compound: O=C1C=C(Nc2ccc(F)c(F)c2O)C(=O)N1c1ccccc1 [Compound 17]
Emax: 54.4%

EC50: 4.21 µM
Compound: O=C1C=C(Nc2cc(F)c(O)c(F)c2)C(=O)N1c1ccc(F)cc1 [Compound 26]
Emax: 80.7%

EC50: 16.9 µM
Compound: O=C1C=C(Nc2cc(F)c(O)c(F)c2)C(=O)N1c1cc(F)c(F)c(F)c1 [Compound 28]
Emax: 31.3%

EC50: 3.34 µM
Compound: O=C1C=C(Nc2cc(F)c(O)c(F)c2)C(=O)N1c1ccc(Cl)cc1 [Compound 29]
Emax: 110%

EC50: 2.91 µM
Compound: COc1ccc(N2C(=O)C=C(Nc3cc(F)c(O)c(F)c3)C2=O)cc1 [Compound 30]
Emax: 111%

EC50: 2.31 µM
Compound: O=C1C=C(Nc2cc(F)c(O)c(F)c2)C(=O)N1c1ccc(OC(F)(F)F)cc1 [Compound 31]
Emax: 64%

EC50: 12.9 µM
Compound: O=C1C=C(Nc2cc(F)c(O)c(F)c2)C(=O)N1c1ccc2c(c1)OCO2 [Compound 32]
Emax: 38.1%

From patent US11753374B2, “Compounds for the treatment of acute and chronic kidney disease” (Southern Research Institute, priority 2020, dated 2023)
